Publication PMC11347135 (2024)

Key:
[1] = tested on: d(CGTATACG)2 (DNA, duplex) CGTATACG; assay: UV melting at 260 nm; conditions: 100 mM KCl, 5 mM MgCl2; 20 mM sodium cacodylate pH 7.3; 3 μM DNA, DNA:compound 1:4; 1 °C/min
[2] = tested on: d(CGTATACG)2 (DNA, duplex) CGTATACG; assay: X-ray crystallography, 1.58 Å

Row | Tm increase [1] | binding ([2]; 50 mM NaCl, 10 mM MgCl2, 25 mM bis-tris pH 7.0, 15% MPD, 20 °C, 0.3 mM DNA, DNA:DA5 1:1) | binding ([2]; 200 mM KCl, 6 mM MnCl2, 50 mM MES pH 6.3, 10% PEG400, 20 °C, 0.5 mM DNA, 1 mM DA4) | SMILES
1 | ~ 8.6 °C | yes | – | c1ccc2c(NCCCCCNc3c4ccccc4nc4ccccc34)c3ccccc3nc2c1
2 | ~ 5.8 °C | – | yes | c1ccc2c(NCCCCNc3c4ccccc4nc4ccccc34)c3ccccc3nc2c1
